Assay results as given in patent US20050043396A1, “5-Benzoylamino-1,3-dioxacyclanes, the method for preparing the same and their use as PKC inhibitor” (priority 2003, published 2005).
Marks after values point to notes of the source that are not given here.

Test system: model of the ear swilling of mice
Test: Anti-inflammatory activity: xylene-induced ear swelling of mice (recognized PKC inhibitor model)
Format: in vivo, Male Kunming species mice
Description: Based on the knowledge of cycloacetals as structural types of the PKC inhibitors, the PKC inhibitor model recognized (i.e. model of the ear swilling of mice) was adopted to evaluate the activity of cycloacetals 1-21 as PKC inhibitor.
In the present invention the model of the ear swilling of mice was used to evaluate the anti-inflammatory activity of 5-benzoylamino-1,3-dioxscyclane compounds. The compounds of the present invention were suspended in CMC solution (5%) at the ratio of […], while the positive control was the suspension of aspirin, and CMC solution (5%) at the ratio of […], and the vehicle control was CMC solution (5%). Male Kunming species mice (from Animal Department of Beijing Medical University, grade 2) with weight about 20-25 g, which were randomly divided into treatment group, vehicle control group, and positive control group with 10 mice each group (food deprivation for 8 hours before testing, drinking unlimited) were administered orally once. 30 minutes after the administration, xylene (0.02 ml) was smeared on the left exterior auricular of the mice, and 4 hours later, the mice were killed by dislocation of cervical vertebra. Double circular pinnae were taken from two ears using 9 mm punching bear, and the swelling was determined by the weight variation of the two pinnae.
An adaptation of the method of Gad et al (1986) was employed for sensitization. Mice were allowed to acclimate for a week after arrival in the laboratory, then were screened to remove any from testing which have ears that appear red or swollen. Male Kunming species, 6 to 8 weeks old, about 20-25 g, were shaved and tape stripped at the start of each study. Mice were randomly divided into test group, vehicle control group, and positive control group with 10 mice each one.
[…] The application was allowed to dry before the animal was returned to its cage. Mice were killed 4 hours later, and a 9-mm Keyes cutaneous punch was used to obtain uniform tissue sections for weight variation which indicating the swelling degree. Groups were statistically analyzed using the Wilk-Shapiro test for normality and the paired parametric Student t test with a significance level of p<0.05. Data were expressed as the mean difference plus or minus the standard error.
Each mouse in the vehicle control mice group was administered orally 0.2 ml of carboxymethyl cellulose (0.5%) once a day, while each mouse in the positive control group was administered orally suspension of 0.6 mg of aspirin in 0.2 ml of carboxymethyl cellulose (0.5%) once a day, and each mouse in the test group was administed orally the suspension of 0.6 mg of the compounds of the present invention in 0.2 ml of carboxymethyl cellulose (0.5%) once a day. The applications were repeated for three consecutive days.
Administered with the same manner and dosage.

[1] = administered orally 1 time, 30 mg/kg, n = 10 (Table 2)
[2] = oral once a day for 3 consecutive days, Dosage = 30 mg/Kg, n = 10, weight difference of 9 mm ear punches, xylene
[3] = administered orally 1 time, 21 mg/kg, n = 10 (Table 2)

Compound: CC(=O)Oc1ccccc1C(=O)O [Aspirin, aspirin, reference compound]
- Weight variation (X ± SD mg) [1]: 4.17 ± 1.80^1) mg
- Weight variation (X ± SD mg) [2]: 4.26 ± 1.44^1) mg

Compound: COC(CC1OCC(NC(=O)c2ccccc2)C(C)O1)OC (centres unmarked) [Compound 9]
- Weight variation (X ± SD mg) [1]: 3.28 ± 2.06^3,5) mg
- Weight variation (X ± SD mg) [2]: 3.97 ± 1.49^1) mg

Compound: COC(CC1OCCC(NC(=O)c2ccccc2)CO1)OC (centres unmarked) [Compound 18]
- Weight variation (X ± SD mg) [3]: 4.31 ± 1.75^1) mg

Compound: C[C@@H]1O[C@@H](c2ccc([N+](=O)[O-])cc2)OC[C@H]1NC(=O)c1ccccc1 [Compound 24, (2S,4S,5R)-2-p-nitrophenyl-5-benzoylamino-4-methyl-1,3-dioxane]
- Weight variation (X ± SD mg) (dosage-effect relationship, 2.3 mg/Kg (Table 3)): 3.21 ± 1.68 mg
- Weight variation (X ± SD mg) (dosage-effect relationship, 7 mg/Kg (Table 3)): 1.81 ± 0.63 mg
- Weight variation (X ± SD mg) (dosage-effect relationship, 30 mg/Kg (Table 3)): 1.43 ± 0.89 mg

Compound: O=CCC1OCC(NC(=O)c2ccccc2)CO1 (centres unmarked) [Compound 38]
- Weight variation (X ± SD mg) [1]: 5.81 ± 2.46 mg

Compound: CC1OC(CC=O)OCC1NC(=O)c1ccccc1 (centres unmarked) [Compound 39]
- Weight variation (X ± SD mg) [1]: 4.84 ± 2.30^1) mg

Compound: O=CCC1OCCC(NC(=O)c2ccccc2)CO1 (centres unmarked) [Compound 40]
- Weight variation (X ± SD mg) [3]: 3.55 ± 1.69^3,6) mg
